From patent US12533350B2, “Use of melanocortin-1 receptor agonist” (TANABE PHARMA CORPORATION, priority 2022, dated 2026)

Columns and labels:
[1] = test system: pre-established BLM-induced skin fibrosis; conditions: imatinib at 150 mg/kg orally once daily day 22-42, positive control
[2] = test system: dermal fibroblasts from SSc patients; test: TGF-β-induced human fibroblast activation, SSc patients; assay type: cell-based; conditions: concentration of 1000 nmol/L; TGF-β 10 ng/mL, 24 hours
Source text: (§1) Full-thickness skin biopsies were obtained from clinically involved skin of patients affected by dcSSc, who were recruited from the Systemic sclerosis clinic within the Leeds Institute of Rheumatic and Musculoskeletal Medicine (UK). Control skin samples were from healthy donors. All patients with dcSSc and healthy donors provided written informed consent through the stratification for risk of progression in systemic sclerosis (STRIKE SSC), which had been approved by the North-East Research Ethic committee. Patients with SSc fulfilled the 2013 ACR/EULAR classification criteria for SSc and were classified as having dcSSc according to the LeRoy and Medsger criteria.
Dermal fibroblasts were isolated from the skin biopsy samples of healthy donors and SSc patients. […]
(§2) Total RNA was extracted using the Zymo quick RNA mini prep kit according to manufacturer's instructions (Zymo Research Corporation). […] Quantitative RT-PCR was performed in triplicates using SYBR Green RT-PCR Mastermix Kit (Thermo Fisher Scientific) and the ABI PRISM 7500 Fast Real Time PCR System (Applied Biosystems). […]
FIGS. 5(A)-5(B) show the effect of Compound A on human fibroblast activation. […] Each bar represents the mean±SEM of the measured values from three wells. […]

[3] = test system: dermal fibroblasts from healthy donors; test: TGF-β-induced human fibroblast activation, healthy donors; assay type: cell-based; conditions: concentration of 1000 nmol/L; TGF-β 10 ng/mL, 24 hours
Source text: as §1
Dermal fibroblasts were isolated from the skin biopsy samples of healthy donors and SSc patients. The skin biopsy samples were minced with a scalpel, placed in plastic culture dishes and covered with Dulbecco's Modified Eagle Medium (DMEM) with 4.5 g/L glucose (Thermo Fisher Scientific) supplemented with 20% fetal calf serum (FCS, Thermo Fisher Scientific), 1% penicillin and streptomycin (Merck), and 1 μg/ml of amphotericin (Thermo Fisher Scientific) and cultured at 37° C. in a humidified atmosphere of 5% CO2. Additional growth medium was added after 3 days with no amphotericin. After 7 days, culture medium was replaced with medium containing 10% FCS and subsequently replenished every 2 to 3 days. When a visible outgrowth of cells was obtained, the fibroblasts were passaged. Briefly, cells were incubated with PBS containing 0.1% EDTA for 5 min, and then detached with trypsin-EDTA solution (Merck), and cultured until 70-80% confluent in DMEM (1 g/L glucose) supplemented with 10% FCS and 1% penicillin and streptomycin. After a subsequent passage, primary cells were retrovirally immortalized using human telomerase reverse transcriptase. […]
as §2
FIGS. 5(A)-5(B) show the effect of Compound A on human fibroblast activation. Dermal fibroblasts from a healthy individual or an SSc patient were grown to confluence, and placed under starvation for 24 hours in a medium supplemented with 1% fetal bovine serum (A: mRNA expression of ACTA2 and COL1A1 in dermal fibroblasts of healthy individuals was measured by real-time PCR, and normalized for the GAPDH expression level. B: mRNA expression of ACTA2 and COL1A1 in dermal fibroblasts of SSc patients was measured for by real-time PCR, and normalized for the GAPDH expression level). Each bar represents the mean±SEM of the measured values from three wells. […]

[4] = test system: bleomycin (BLM)-induced skin fibrosis model; conditions: reported in the literature; cited from earlier work

Cc1ccc(NC(=O)c2ccc(CN3CCN(C)CC3)cc2)cc1Nc1nccc(-c2cccnc2)n1 [imatinib, reference compound]
BLM-induced increase of skin thickness [1]: improved | BLM-induced increase of αSMA-positive myofibroblasts in the dermis [1]: improved | BLM-induced loss of dermal white adipose tissue [1]: improved

α-MSH [reference compound]
TGF-β-induced increase in αSMA mRNA expression [2]: suppressed | TGF-β-induced increase in αSMA mRNA expression [3]: suppressed | skin fibrosis [4]: suppress
